From ChEMBL document CHEMBL1201862, “PubChem BioAssay data set” (2004)
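Grown in 96-well plates, cells were treated for 48 hours with each compound at five concentrations. Insufficient inhibition: endpoint recorded as highest concentration tested. GI50: concentration for 50% inhibition of growth.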 The source made the active and inactive calls. Cut-off read from the data, not from the text of the source: active = GI50 up to about 1.1 µM and inactive = higher.

Key:
Experiment in all cases: inhibition of tumour cell growth, NCI panel, 48 h
[1] = system: RPMI-8226
[2] = system: TK-10
[3] = system: RXF 393
[4] = system: NCI/ADR-RES
[5] = system: OVCAR-3
[6] = system: SW-620
[7] = system: UO-31
[8] = system: LOX IMVI
[9] = system: SR
[10] = system: OVCAR-5
[11] = system: NCI-H226
[12] = system: OVCAR-4
[13] = system: UACC-62
[14] = system: 786-0
[15] = system: HT-29
[16] = system: SNB-19
[17] = system: SN12C
[18] = system: ACHN
[19] = system: HOP-62
[20] = system: DU-145

Measured: GI50

COC(=O)N/N=C(\C)C(CN1CCOCC1)C(c1ccccc1)c1cc2ccccc2oc1=O (stereo not given)
inactive: [1] 25 µM | [2] > 100 µM | [3] 72.1 µM | [4] 55.8 µM | [5] > 100 µM | [6] > 100 µM | [7] > 100 µM | [8] > 100 µM | [9] 23.9 µM | [10] > 100 µM | [11] > 100 µM | [12] 74.3 µM | [13] > 100 µM | [14] > 100 µM | [15] > 100 µM | [16] > 100 µM | [17] > 100 µM | [18] > 100 µM | [19] > 100 µM | [20] > 100 µM

Nc1ncnc2ccc(Sc3ccc4ncnc(N)c4c3)cc12
inactive: [1] > 100 µM | [2] > 100 µM | [3] > 100 µM | [4] > 100 µM | [5] > 100 µM | [6] > 100 µM | [7] > 100 µM | [8] > 100 µM | [9] > 100 µM | [10] > 100 µM | [11] > 100 µM | [12] > 100 µM | [13] > 100 µM | [14] > 100 µM | [15] > 100 µM | [16] > 100 µM | [17] > 100 µM | [18] > 100 µM | [19] > 100 µM | [20] > 100 µM

CC(=O)OCC1(C)C(O)CCC2(C)C1CCC1CC3CC12CCC3(O)CO (stereo not given)
inactive: [1] 47.5 µM | [2] > 100 µM | [3] > 100 µM | [4] 37.7 µM | [5] > 100 µM | [6] > 95.7 µM | [7] 25 µM | [8] 44.3 µM | [9] 4.42 µM | [10] > 100 µM | [11] > 100 µM | [12] > 87.5 µM | [13] 61.8 µM | [14] 44.4 µM | [15] 34.3 µM | [16] > 100 µM | [17] > 100 µM | [18] 4.46 µM | [19] 36.5 µM | [20] 42.6 µM

C[N+](C)(C)CCN[N+]1(C)CCCc2ccccc21 (stereo not given)
inactive: [1] 32.8 µM | [2] > 100 µM | [3] 36 µM | [4] > 100 µM | [5] > 100 µM | [6] 38.5 µM | [7] > 100 µM | [8] > 100 µM | [9] 50.2 µM | [10] > 100 µM | [11] 54.1 µM | [12] > 100 µM | [13] > 100 µM | [14] 33.3 µM | [15] > 100 µM | [16] > 100 µM | [17] > 100 µM | [18] > 100 µM | [19] > 100 µM | [20] > 100 µM

COC(=O)/C=C(/C(=O)OC)c1c(C)cc2c(C)cc(C)cc(C)c1-2
inactive: [1] 9.79 µM | [2] 27.1 µM | [3] 18.8 µM | [4] 9.33 µM | [5] 10.2 µM | [6] 7.18 µM | [7] 23 µM | [8] 11.7 µM | [9] 4.19 µM | [10] 18.9 µM | [11] 21.1 µM | [12] 22.3 µM | [13] 9.77 µM | [14] 15.2 µM | [15] 7.41 µM | [16] 9.89 µM | [17] 14.9 µM | [18] 20.4 µM | [19] 9.14 µM | [20] 22.4 µM

COC1=C(N=[N+]=[N-])C(=O)c2ncccc2C1=O
inactive: [1] 1.88 µM | [2] 10.9 µM | [3] 3.75 µM | [4] 10 µM | [5] 5.57 µM | [6] 1.95 µM | [7] 14.4 µM | [8] 3.3 µM | [9] 2.36 µM | [10] 19.5 µM | [11] 19.2 µM | [12] 2.69 µM | [13] 7.82 µM | [14] 8.79 µM | [15] 18.4 µM | [16] 17.1 µM | [17] 15.5 µM | [18] 4.28 µM | [19] 15.8 µM | [20] 20.8 µM

COC(=O)c1cccc(COc2ccc([N+](=O)[O-])cc2Cl)c1
inactive: [1] 89.7 µM | [2] > 100 µM | [3] > 100 µM | [4] > 100 µM | [5] 63.4 µM | [6] > 100 µM | [7] 98.9 µM | [8] 85.5 µM | [9] > 100 µM | [10] > 100 µM | [11] 43.2 µM | [12] 58.3 µM | [13] 43.4 µM | [14] > 100 µM | [15] > 100 µM | [16] > 100 µM | [17] 49 µM | [18] 53.3 µM | [19] > 100 µM | [20] > 100 µM

CC(C)CC1C(=O)NCCC(NC(=O)C(N)Cc2ccc(O)cc2)C(=O)NC(Cc2ccccc2)C(=O)NC(Cc2ccccc2)NC1=O (stereo not given)
inactive: [1] 78.2 µM | [2] > 100 µM | [3] > 100 µM | [4] > 100 µM | [5] > 100 µM | [6] > 100 µM | [7] > 100 µM | [8] > 100 µM | [9] > 100 µM | [10] > 100 µM | [11] > 100 µM | [12] > 100 µM | [13] > 100 µM | [14] > 100 µM | [15] > 100 µM | [16] > 100 µM | [17] > 100 µM | [18] > 100 µM | [19] > 100 µM | [20] > 100 µM

O=C(CN1C(=O)c2ccccc2C1=O)C(O)CN1C(=O)c2ccccc2C1=O (stereo not given)
inactive: [1] > 100 µM | [2] 46.1 µM | [3] 34.4 µM | [4] > 100 µM | [5] > 100 µM | [6] > 100 µM | [7] 73.3 µM | [8] 92.3 µM | [9] > 100 µM | [10] > 100 µM | [11] 73.8 µM | [12] 98.4 µM | [13] > 100 µM | [14] 28 µM | [15] > 100 µM | [16] 50.7 µM | [17] 53.5 µM | [18] 20 µM | [19] 17.9 µM | [20] 47.2 µM

Cc1nnc2n1-c1ccccc1-c1[nH]c3ccccc3c1C2
inactive: [1] 32.2 µM | [2] > 100 µM | [3] 44.1 µM | [4] 69.8 µM | [5] 76.6 µM | [6] > 100 µM | [7] 28.8 µM | [8] 89.9 µM | [9] 22.8 µM | [10] > 100 µM | [11] > 100 µM | [12] 45.2 µM | [13] 25.1 µM | [14] 83.8 µM | [15] 68.2 µM | [16] > 100 µM | [17] > 100 µM | [18] 39.9 µM | [19] 58.9 µM | [20] > 100 µM

O=C(OCCN=C1c2ccccc2CCc2ccccc21)c1cc([N+](=O)[O-])cc([N+](=O)[O-])c1
inactive: [1] 5.09 µM | [2] > 31.6 µM | [3] > 31.6 µM | [4] > 31.6 µM | [5] 23.3 µM | [6] > 31.6 µM | [7] 21.9 µM | [8] > 31.6 µM | [9] 3.52 µM | [10] > 31.6 µM | [11] > 31.6 µM | [12] 78.2 µM | [13] > 31.6 µM | [14] > 31.6 µM | [15] > 31.6 µM | [16] > 31.6 µM | [17] > 31.6 µM | [18] > 31.6 µM | [19] > 31.6 µM | [20] > 31.6 µM
